In patent publication US20260265238A1, “COMPOUNDS AND PHARMACEUTICAL COMPOSITIONS THAT DEGRADE SWI/SNF-RELATED MATRIX-ASSOCIATED ACTIN-DEPENDENT REGULATOR OF CHROMATIN SUBFAMILY A” (Plexium, Inc., priority 2023, published 2026):

Legend:
[1] = molecular target: T1, SMARCA2-HiBiT HeLa cells (protein which is expressed from the SMARCA2 gene) (Homo sapiens, UniProt P51531); assay: SMARCA2 degradation assay (HiBiT-fusion HeLa cell line, 24 h, luminescence); assay type: cell-based
T1 construct: protein which is expressed from the SMARCA2 and SMARCA4 genes; host or cells: HeLa (SMARCA2-HiBiT engineered line)
In short: (§1)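 In this 24-hour cellular degradation readout, HiBiT-tagged HeLa lines received compound at up to typically 10 μM down to 300 pM in 10 points. After lysis with LgBiT and substrate, luminescence signals were used to build dose-response curves for DC50.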

[2] = molecular target: T2, SMARCA4-HiBiT HeLa cells (protein which is expressed from the SMARCA4 gene) (Homo sapiens, UniProt P51532); assay: SMARCA4 degradation assay (HiBiT-fusion HeLa cell line, 24 h, luminescence); assay type: cell-based
T2 construct: protein which is expressed from the SMARCA2 and SMARCA4 genes; host or cells: HeLa (SMARCA4-HiBiT engineered line)
In short: as §1

T1 sequence (P51531 whole entry, the tested form may be a part): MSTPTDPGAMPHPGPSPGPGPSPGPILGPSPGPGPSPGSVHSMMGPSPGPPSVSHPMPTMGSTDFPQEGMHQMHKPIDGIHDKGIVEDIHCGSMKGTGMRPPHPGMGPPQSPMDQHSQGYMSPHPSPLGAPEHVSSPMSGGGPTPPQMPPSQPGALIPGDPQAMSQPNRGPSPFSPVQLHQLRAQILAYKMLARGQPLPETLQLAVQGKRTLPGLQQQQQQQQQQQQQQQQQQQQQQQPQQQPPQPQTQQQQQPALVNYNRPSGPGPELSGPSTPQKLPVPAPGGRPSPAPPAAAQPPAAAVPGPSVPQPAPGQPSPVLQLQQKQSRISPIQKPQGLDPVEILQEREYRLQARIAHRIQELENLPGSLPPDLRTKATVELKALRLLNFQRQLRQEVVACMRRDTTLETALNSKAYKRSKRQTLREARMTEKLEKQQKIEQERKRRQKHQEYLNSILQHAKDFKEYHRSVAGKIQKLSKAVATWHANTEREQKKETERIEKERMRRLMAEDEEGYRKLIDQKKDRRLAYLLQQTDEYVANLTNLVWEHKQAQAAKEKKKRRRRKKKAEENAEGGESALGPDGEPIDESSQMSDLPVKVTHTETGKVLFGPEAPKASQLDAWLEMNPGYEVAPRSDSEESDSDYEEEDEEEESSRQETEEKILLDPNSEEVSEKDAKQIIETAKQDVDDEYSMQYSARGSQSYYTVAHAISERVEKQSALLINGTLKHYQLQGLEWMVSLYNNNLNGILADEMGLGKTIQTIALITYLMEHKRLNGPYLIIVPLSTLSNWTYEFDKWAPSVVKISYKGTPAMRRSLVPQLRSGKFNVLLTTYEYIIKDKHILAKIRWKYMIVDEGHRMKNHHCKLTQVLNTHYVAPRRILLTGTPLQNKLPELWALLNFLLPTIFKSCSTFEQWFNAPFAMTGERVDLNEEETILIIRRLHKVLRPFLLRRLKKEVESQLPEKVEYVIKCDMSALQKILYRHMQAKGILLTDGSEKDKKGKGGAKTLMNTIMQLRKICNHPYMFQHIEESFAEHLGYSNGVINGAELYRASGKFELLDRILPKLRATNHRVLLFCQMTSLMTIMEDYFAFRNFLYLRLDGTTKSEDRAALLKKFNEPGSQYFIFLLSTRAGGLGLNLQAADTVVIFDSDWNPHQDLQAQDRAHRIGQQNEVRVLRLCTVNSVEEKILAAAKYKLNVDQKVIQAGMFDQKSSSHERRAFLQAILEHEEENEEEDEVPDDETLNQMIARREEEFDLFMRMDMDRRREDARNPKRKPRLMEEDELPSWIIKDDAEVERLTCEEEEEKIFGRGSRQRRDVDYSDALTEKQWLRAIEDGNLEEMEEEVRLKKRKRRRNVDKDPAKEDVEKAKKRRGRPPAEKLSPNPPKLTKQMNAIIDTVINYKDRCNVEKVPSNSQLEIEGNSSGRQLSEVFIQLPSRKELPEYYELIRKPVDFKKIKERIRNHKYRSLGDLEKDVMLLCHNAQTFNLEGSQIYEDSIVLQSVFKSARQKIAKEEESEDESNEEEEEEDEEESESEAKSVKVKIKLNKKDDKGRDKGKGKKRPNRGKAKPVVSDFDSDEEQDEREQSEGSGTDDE
T2 sequence (P51532 whole entry, the tested form may be a part): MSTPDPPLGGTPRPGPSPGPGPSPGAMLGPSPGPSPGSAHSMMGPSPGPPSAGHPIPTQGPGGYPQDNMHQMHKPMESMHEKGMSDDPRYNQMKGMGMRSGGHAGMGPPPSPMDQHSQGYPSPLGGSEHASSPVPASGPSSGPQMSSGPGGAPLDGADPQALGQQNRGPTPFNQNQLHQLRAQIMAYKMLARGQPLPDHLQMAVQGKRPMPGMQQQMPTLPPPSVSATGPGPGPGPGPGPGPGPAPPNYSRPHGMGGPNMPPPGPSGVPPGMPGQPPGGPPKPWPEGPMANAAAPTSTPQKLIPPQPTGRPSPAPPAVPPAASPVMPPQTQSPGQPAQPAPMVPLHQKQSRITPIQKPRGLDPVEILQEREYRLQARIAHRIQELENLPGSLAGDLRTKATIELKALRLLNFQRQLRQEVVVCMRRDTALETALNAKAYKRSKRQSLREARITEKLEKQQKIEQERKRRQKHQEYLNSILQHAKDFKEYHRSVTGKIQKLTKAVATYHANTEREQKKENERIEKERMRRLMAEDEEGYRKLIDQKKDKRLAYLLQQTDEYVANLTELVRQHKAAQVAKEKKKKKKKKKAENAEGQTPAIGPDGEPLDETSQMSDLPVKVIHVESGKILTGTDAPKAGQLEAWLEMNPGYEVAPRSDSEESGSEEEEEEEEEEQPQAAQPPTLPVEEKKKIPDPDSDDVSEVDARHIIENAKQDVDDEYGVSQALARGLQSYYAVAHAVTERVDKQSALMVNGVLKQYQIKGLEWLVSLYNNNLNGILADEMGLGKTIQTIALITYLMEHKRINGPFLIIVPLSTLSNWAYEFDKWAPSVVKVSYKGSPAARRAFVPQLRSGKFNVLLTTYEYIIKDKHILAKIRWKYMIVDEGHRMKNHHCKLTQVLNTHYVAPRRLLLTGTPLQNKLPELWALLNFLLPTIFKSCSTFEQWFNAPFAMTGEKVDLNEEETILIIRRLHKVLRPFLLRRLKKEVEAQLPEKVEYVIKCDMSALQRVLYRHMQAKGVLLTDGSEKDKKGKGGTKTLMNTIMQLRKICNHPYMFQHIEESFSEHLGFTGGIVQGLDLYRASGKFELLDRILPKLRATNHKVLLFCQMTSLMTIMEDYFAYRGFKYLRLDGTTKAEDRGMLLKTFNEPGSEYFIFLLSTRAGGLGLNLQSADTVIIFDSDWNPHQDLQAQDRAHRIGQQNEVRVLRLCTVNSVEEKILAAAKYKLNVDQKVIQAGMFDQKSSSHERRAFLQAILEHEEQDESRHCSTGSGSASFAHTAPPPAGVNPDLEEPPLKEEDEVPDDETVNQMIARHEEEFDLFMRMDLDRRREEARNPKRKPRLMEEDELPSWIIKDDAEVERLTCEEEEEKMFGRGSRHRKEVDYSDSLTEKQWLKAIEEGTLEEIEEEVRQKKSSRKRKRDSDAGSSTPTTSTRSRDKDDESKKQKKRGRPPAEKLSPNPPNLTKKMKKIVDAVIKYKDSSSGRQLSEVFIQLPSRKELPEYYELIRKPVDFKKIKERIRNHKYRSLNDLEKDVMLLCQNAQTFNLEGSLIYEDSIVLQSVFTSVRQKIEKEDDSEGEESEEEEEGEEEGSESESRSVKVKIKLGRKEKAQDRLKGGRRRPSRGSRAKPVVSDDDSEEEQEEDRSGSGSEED

SMILES	DC50 [1]	SMARCA2 % Degradation @ 1 μM ([1]; @ 1 μM)	DC50 [2]	inhibition at 1 µM ([2]; @ 1 μM)	SMARCA2 % Degradation @ 1 μM ([1]; 1 μM)	inhibition at 1 µM ([2]; 1 μM)
C[C@@H]1CCN(c2cc(-c3ccccc3O)nnc2N)CCN1c1ccc(C(F)(F)F)c(C#CCN2CCCC2)n1 [Compound P-394]	0.5 to 5 µM		0.5 to 5 µM		+ (+=<30%)	
C[C@@H]1CCN(c2cc(-c3ccccc3O)nnc2N)CCN1c1ccnc(C#CCN2C3CCC2COC3)n1 [Compound P-160, o-{5-[(R)-5-methyl-4-(2-{3-(3-oxa-8-azabicyclo[3.2.1]oct-8-yl)-1-propynyl}-4-pyrimidinyl)-1,4-diazepan-1-yl]-6-amino-3-pyridazinyl}phenol]	0.05 to 0.5 µM	+++ (+++=>70%)	0.05 to 0.5 µM	30 to 70%		
C[C@@H]1CCN(c2cc(-c3ccccc3O)nnc2N)CCN1c1nc(C#CCO)ncc1F [Compound P-207, o-(5-{(R)-4-[5-fluoro-2-(3-hydroxy-1-propynyl)-4-pyrimidinyl]-5-methyl-1,4-diazepan-1-yl}-6-amino-3-pyridazinyl)phenol]	0.5 to 5 µM	++ (++=30-70%)	0.5 to 5 µM	< 30%		
CC(C)(C)OC(=O)N1CCC(C#Cc2nccc(N3CCCN(c4cc(-c5ccccc5O)nnc4N)CC3)n2)CC1 [Compound P-351, tert-butyl 4-[2-(4-{4-[3-amino-6-(o-hydroxyphenyl)-4-pyridazinyl]-1,4-diazepan-1-yl}-2-pyrimidinyl)ethynyl]-1-piperidinecarboxylate]	0.5 to 5 µM	++ (++=30-70%)	0.5 to 5 µM	30 to 70%		
NCC#Cc1nccc(N2CC3CN(c4cc(-c5ccccc5O)nnc4N)C3C2)n1 (centres unmarked) [Compound P-84, 2-(6-amino-5-(3-(2-(3-aminoprop-1-yn-1-yl)pyrimidin-4-yl)-3,6-diazabicyclo[3.2.0]heptan-6-yl)pyridazin-3-yl)phenol]	0.5 to 5 µM	+ (+=<30%)	> 5 µM	< 30%		
CC1CN(c2ccnc(C#CCN)n2)CCCN1c1cc(-c2ccccc2O)nnc1N (centres unmarked) [Compound P-40, 2-(6-amino-5-(4-(2-(3-aminoprop-1-yn-1-yl)pyrimidin-4-yl)-2-methyl-1,4-diazepan-1-yl)pyridazin-3-yl)phenol]	0.5 to 5 µM	+ (+=<30%)	0.5 to 5 µM	< 30%		
Nc1nnc(-c2ccccc2O)cc1N1CCC2CCN(c3ccnc(C#CCNC(=O)c4cc5ncccn5n4)n3)C2C1 (centres unmarked) [Compound P-37, N-(3-(4-(6-(3-amino-6-(2-hydroxyphenyl)pyridazin-4-yl)octahydro-1H-pyrrolo[2,3-c]pyridin-1-yl)pyrimidin-2-y1)prop-2-yn-1-yl)pyrazolo[1,5-a]pyrimidine-2-carboxamide]	0.05 to 0.5 µM	++ (++=30-70%)	0.05 to 0.5 µM	30 to 70%		
CC(C)(C)OC(=O)NCC#Cc1nccc(N2C3CCC2CN(c2cc(-c4ccccc4O)nnc2N)CC3)n1 (centres unmarked) [Compound P-303, 4-(9-{2-[3-(tert-butoxycarbonylamino)-1-propynyl]-4-pyrimidinyl}-3,9-diazabicyclo[4.2.1]non-3-yl)-6-(o-hydroxyphenyl)-3-pyridazinamine]	< 0.05 µM	++ (++=30-70%)	< 0.05 µM	30 to 70%		
Nc1nnc(-c2ccccc2O)cc1N1CCCN(c2ccnc(/C=C/CNC(=O)c3cnc4ccccc4n3)n2)CC1 [Compound P-110, (E)-N-(3-(4-(4-(3-amino-6-(2-hydroxyphenyl)pyridazin-4-yl)-1,4-diazepan-1-yl)pyrimidin-2-yl)allyl)quinoxaline-2-carboxamide]	0.05 to 0.5 µM	+++ (+++=>70%)	0.05 to 0.5 µM	> 70%		
Cc1nn2ccn(CC#Cc3nccc(N4CCN(c5cc(-c6ccccc6O)nnc5N)CC[C@H]4C)n3)c(=O)c2c1C [Compound P-336, 5-[3-(4-{ (R)-4-[3-amino-6-(o-hydroxyphenyl)-4-pyridazinyl]-7-methyl-1,4-diazepan-1-yl}-2-pyrimidinyl)-2-propynyl]-2,3-dimethyl-1,5,7a-triaza-4(5H)-indenone]	0.05 to 0.5 µM	++ (++=30-70%)	0.05 to 0.5 µM	< 30%		

Results, then the molecule that gave them:

DC50 [1]	SMARCA2 % Degradation @ 1 μM ([1]; @ 1 μM)	DC50 [2]	inhibition at 1 µM ([2]; @ 1 μM)	SMARCA2 % Degradation @ 1 μM ([1]; 1 μM)	inhibition at 1 µM ([2]; 1 μM)	SMILES
0.05 to 0.5 µM	++ (++=30-70%)	0.05 to 0.5 µM	< 30%			Nc1nnc(-c2ccccc2O)cc1N1CCN(c2ccnc(C#CCNC(=O)c3cccnc3)n2)CC1 [Compound P-4, N-[3-(4-{4-[3-amino-6-(2-hydroxyphenyl)pyridazin-4-yl]piperazin-1-yl}pyrimidin-2-yl)prop-2-yn-1-yl]pyridine-3-carboxamide]
0.05 to 0.5 µM		0.05 to 0.5 µM		++ (++=30-70%)	< 30%	C[C@@H]1CCN(c2cc(-c3ccccc3O)nnc2N)CCN1c1ccc(C#N)c(C#CCN2CC(F)(F)C2)n1 [Compound P-412, 6-{(R)-4-[3-amino-6-(0-hydroxyphenyl)-4-pyridazinyl]-7-methyl-1,4-diazepan-1-yl}-2-[3-(3,3-difluoro-1-azetidinyl)-1-propynyl]nicotinonitrile]
0.05 to 0.5 µM		< 0.05 µM		++ (++=30-70%)	30 to 70%	C[C@@H]1CCN(c2cc(-c3ccccc3O)nnc2N)CCN1c1ccnc(C#CCN2CC(F)(F)C2)c1 [Compound P-421, 0-{5-[(R)-4-{2-[3-(3,3-difluoro-1-azetidinyl)-1-propynyl]-4-pyridyl}-5-methyl-1,4-diazepan-1-yl]-6-amino-3-pyridazinyl}phenol]
0.05 to 0.5 µM		0.05 to 0.5 µM		+++ (+++=>70%)	30 to 70%	C[C@@H]1CCN(c2cc(-c3ccccc3O)nnc2N)CCN1c1ccnc(C#CC2CC(F)(F)C2)c1 [Compound P-396, 0-{5-[(R)-4-{2-[2-(3,3-difluorocyclobutyl)ethynyl]-4-pyridyl}-5-methyl-1,4-diazepan-1-yl]-6-amino-3-pyridazinyl}phenol]
< 0.05 µM	+++ (+++=>70%)	0.05 to 0.5 µM	30 to 70%			C[C@@H]1CCN(c2cc(-c3ccccc3O)nnc2N)CCN1c1ccnc(C#CC2CN(CC(F)(F)F)C2)n1 [Compound P-173, o-{5-[(R)-5-methyl-4-(2-{2-[1-(2,2,2-trifluoroethyl)-3-azetidinyl]ethynyl}-4-pyrimidinyl)-1,4-diazepan-1-y1]-6-amino-3-pyridazinyl}phenol]
0.05 to 0.5 µM	++ (++=30-70%)	0.05 to 0.5 µM	30 to 70%			CC(=O)N(C)C/C=C/c1nccc(N2CCN(c3cc(-c4ccccc4O)nnc3N)CC[C@H]2C)n1 [Compound P-153, N-[3-(4-{(R)-4-[3-amino-6-(o-hydroxyphenyl)-4-pyridazinyl]-7-methyl-1,4-diazepan-1-yl}-2-pyrimidinyl)-2-propenyl]-N-methylacetamide]
0.05 to 0.5 µM		0.05 to 0.5 µM		++ (++=30-70%)		C[C@@H]1CCN(c2cc(-c3ccccc3O)nnc2N)CCN1c1ccnc(C#CC2CC2)c1 [Compound P-391, 0-(5-{(R)-4-[2-(2-cyclopropylethynyl)-4-pyridyl]-5-methyl-1,4-diazepan-1-yl}-6-amino-3-pyridazinyl)phenol]
0.05 to 0.5 µM		0.05 to 0.5 µM		++ (++=30-70%)	30 to 70%	C[C@H]1CCN(c2cc(-c3ccccc3O)nnc2N)CCN1c1ccc(C#N)c(C#CCN(C)CC(F)(F)F)n1 [Compound P-415, 2-{3-[N-methyl(2,2,2-trifluoroethyl)amino]-1-propynyl}-6-{(S)-4-[3-amino-6-(o-hydroxyphenyl)-4-pyridazinyl]-7-methyl-1,4-diazepan-1-yl}nicotinonitrile]
0.05 to 0.5 µM	+++ (+++=>70%)	0.05 to 0.5 µM	30 to 70%			Nc1nnc(-c2ccccc2O)cc1N1CCCN(c2ccnc(C#CCN3CCCC3=O)n2)CC1 [Compound P-372, 1-[3-(4-{4-[3-amino-6-(o-hydroxyphenyl)-4-pyridaziny1]-1,4-diazepan-1-y1}-2-pyrimidinyl)-2-propynyl]-2-pyrrolidinone]
< 0.05 µM	+++ (+++=>70%)	< 0.05 µM	30 to 70%			C[C@@H]1CCCN1CC#Cc1nccc(N2CCN(c3cc(-c4ccccc4O)nnc3N)CC[C@H]2C)n1 [Compound P-232, o-{5-[(R)-4-(2-{3-[(R)-2-methyl-1-pyrrolidinyl]-1-propynyl}-4-pyrimidinyl)-5-methyl-1,4-diazepan-1-yl]-6-amino-3-pyridazinyl}phenol]
< 0.05 µM	+++ (+++=>70%)	< 0.05 µM	> 70%			C[C@H]1CCN(c2cc(-c3ccccc3O)nnc2N)CCN1c1ccnc(C#CCN(C)C)n1 [Compound P-250]
< 0.05 µM	++ (++=30-70%)	< 0.05 µM	< 30%			C[C@@H]1CCN(c2cc(-c3ccccc3O)nnc2N)CCN1c1ccnc(C#CCN2CC[C@@H](F)C2)n1 [Compound P-236, o-{5-[(R)-4-(2-{3-[(R)-3-fluoro-1-pyrrolidinyl]-1-propynyl}-4-pyrimidinyl)-5-methyl-1,4-diazepan-1-yl]-6-amino-3-pyridaziny1} phenol]
